Assay results published in patent US12564641B2 (EISAI R&D MANAGEMENT CO., LTD., priority 2019, dated 2026).
Read-outs that look alike come from different tables or passages of the source.

Columns and labels:
HEC-251 cells = experiment: In vitro cytotoxicity analysis (Crystal Violet), HEC-251; assay type: cell-based; settings: Homo sapiens
Protocol: (§1) Plates were read at 570 nm. Data was analyzed using GraphPad Prism 6.

[1] = test system: A3 (A431 stably transfected with human mesothelin) cells; experiment: In vitro cytotoxicity analysis (Crystal Violet), A3; assay type: cell-based
Protocol: as §1
Fifteen anti-mesothelin antibodies were sub-cloned, scale-up expressed and purified, and conjugated using maleimide-VCP-eribulin as payload at the Cys80 position. All ADCs were purified and characterized using SEC-HPLC for aggregation analysis, HIC-HPLC for DAR analysis, and cell-based assay with A431-A3 (MSLN^hi), A431 (MSLN^lo), and OVCAR3 (MSLN^hi) cell lines. […] Based on the characterization data below, six antibodies (bolded) were selected for humanization.

A431 cells = experiment: In vitro cytotoxicity analysis (Crystal Violet), A431; settings: Homo sapiens, A-431, read-out: Cell based Cytotoxicity assay, EC50 (nM) A431-6 hr; treated with ADC for 6 hours then washed off
Protocol: as §1
All ADCs were purified and characterized using SEC-HPLC for aggregation analysis, HIC-HPLC for DAR analysis, and cell-based assay with A431-A3 (MSLN^hi), A431 (MSLN^lo), and OVCAR3 (MSLN^hi) cell lines.

H226 cells = experiment: In vitro cytotoxicity analysis (Crystal Violet), H226; assay type: cell-based; settings: Homo sapiens
Protocol: as §1

human NSCLC PDX LXFA-586 = experiment: Human NSCLC PDX model LXFA-586
Source text: (§2) Animals: Female NMRI nu/nu mice, 4 to 6 weeks of age.
Xenotransplantation: LXFA-586 established growing tumor (T2N1M0) from a primary non-small cell lung adenocarcinoma human patient.
(§3) Experimental procedure: Animals were monitored until the tumor implants reached the study volume criteria of 50-250 mm^3 (e.g., 80-200 mmi) in a sufficient number of animals. […] The process of the assignment to groups (enrollment, stratified randomization) may also be referred to as randomization. The day of randomization was designated as day 0 of the experiment.
(§4) Tumors were measured and mice were weighed twice a week during the experimental period. The first day of dosing was day 1, one day after randomization (day 0).

MSLN-positive cell lines = experiment: In vitro cytotoxicity (IC50, Crystal Violet) on MSLN-positive cell lines (Example 11)
Protocol: Cytotoxicity: Cells were sub-cultured and seeded at 5,000 cells/well in complete growth medium in 96-well tissue culture plates, and incubated at 37° C., 5% CO2 overnight (16 hours). Test reagents were serially diluted 1:3 in 2 mL deep-well dilution plates, starting at 200 nM (10 dilutions total). Diluted samples (100 μL) were added to the cell plates (starting concentration of test samples at 100 nM). Plates were incubated at 37° C. 5% CO2 for an additional 5 days. Medium was then discarded, and plates were washed once with 200 μL DPBS, stained with 50 μL of 0.2% Crystal Violet solution at room temperature for 15 min, and then washed extensively with tap water. Plates were air-dried, and Crystal Violet was dissolved with 200 μL of 1% SDS solution. Plates were read at 570 nm. Data was analyzed for IC50 determination using GraphPad Prism 6.

human NSCLC PDX LXFL-529 = experiment: Human NSCLC PDX model LXFL-529
Source text: as §2
Xenotransplantation: LXFL-529 established growing tumor (T3N1M0) from a primary non-small cell lung adenocarcinoma human patient.
as §3, with “mm^3)” for “mmi)”
as §4

[2] = test system: various cell lines (51 cell lines); experiment: In vitro potency (IC50, Crystal Violet) in cell lines with varying mesothelin expression; assay type: cell-based
Protocol: Cytotoxicitly Cells were sub-cultured and seeded at 5,000 cells/well in complete growth medium in 96-well tissue culture plates, and incubated at 37° C., 5% CO2 overnight (16 hours). Test reagents were serially diluted 1:3 in 2 mL deep-well dilution plates, starting at 200 nM (10 dilutions total). Diluted samples (100 μL) were added to the cell plates (starting concentration of test samples at 100 nM). Plates were incubated at 37° C., 5% CO2 for an additional 5 days. Medium was then discarded, and plates were washed once with 200 μL DPBS, stained with 50 μL of 0.2% Crystal Violet solution at room temperature for 15 min, and then washed extensively with tap water. Plates were air-dried, and Crystal Violet was dissolved with 200 μL of 1% SDS solution. Plates were read at 570 nm. Data was analyzed for IC50 determination using GraphPad Prism 6. Correlation analysis was performed in GraphPad Prism using a non-parametric Spearman analysis.

MSLN-negative cell lines = experiment: In vitro cytotoxicity (IC50, Crystal Violet) on MSLN-negative cell lines (Example 11); assay type: cell-based; settings: for IC50: Homo sapiens, read-out: In vitro cell based potency, IC50
Protocol: Plates were incubated at 37° C. 5% CO2 for an additional 5 days. […] Plates were read at 570 nm.

## C=C1C[C@@H]2CC[C@@]34C[C@H]5O[C@H]6[C@@H](O3)[C@H]3O[C@H](CC[C@@H]3O[C@H]6[C@H]5O4)CC(=O)C[C@@H]3[C@@H](OC)[C@@H](C[C@H](O)CN)O[C@H]3C[C@H]3O[C@@H](CC[C@@H]1O2)C[C@@H](C)C3=C [Eribulin, eribulin, reference compound]
HEC-251 cells; HEC-251, 120 h, Table 18, 5 days, read-out: Cell-Based Cytotoxicity Assay, EC50 (nM) HEC-251
  EC50: 0.2 nM
HEC-251 cells; HEC-251, Table 19, payloads, read-out: Cell-Based Cytotoxicity Assay EC50 (nM) HEC-251
  EC50: 0.2 nM
[1]; A-431, 120 h, Table 18, 5 days, read-out: Cell-Based Cytotoxicity Assay, EC50 (nM) A3
  EC50: 1.03 nM
[1]; A-431, Table 19, payloads, read-out: Cell-Based Cytotoxicity Assay EC50 (nM) A3
  EC50: 1.03 nM
[1]; A-431, read-out: Cell based Cytotoxicity assay, EC50 (nM) A3-6 hr, treated with ADC for 6 hours then washed off
  EC50: 4.08 nM
[1]; A-431, read-out: Cell based Cytotoxicity assay, EC50 (nM) A3-48 hr, treated for 48 hours
  EC50: 1.09 nM
A431 cells
  EC50: 2.86 nM
H226 cells; NCI-H226, 120 h, Table 18, 5 days, read-out: Cell-Based Cytotoxicity Assay, EC50 (nM) H226
  EC50: 5.3 nM
H226 cells; NCI-H226, Table 19, payloads, read-out: Cell-Based Cytotoxicity Assay EC50 (nM) H226
  EC50: 5.3 nM
Human NSCLC PDX LXFA-586; eribulin single dose of 3.2 mg/kg i.v., on day 21
  minimum T/C: 14.8%
Human NSCLC PDX LXFA-586; mouse, in vivo, iv, 3.2 mg/kg
  tolerability / bodyweight: slight and transient bodyweight loss
MSLN-positive cell lines; Homo sapiens, NCI-H292, read-out: In vitro cell based potency, IC50
  IC50: 0.11 nM
MSLN-positive cell lines; NCI-H292 cells (MSLN MFI 108.6)
  % Max Killing: 85.37%
MSLN-positive cell lines; NCI-H1568, read-out: In vitro cell based potency, IC50
  IC50: 0.14 nM
MSLN-positive cell lines; NCI-H1568/MSLN cells (MSLN MFI 4474.00)
  % Max Killing: 74.39%
MSLN-positive cell lines; OVCAR3-A1 cells (MSLN MFI 220.0)
  % Max Killing: 99.31%
MSLN-positive cell lines; read-out: In vitro cell based potency, IC50
  IC50: 0.02 nM
Human NSCLC PDX LXFL-529; eribulin single dose of 3.2 mg/kg (mouse MTD) i.v.
  anti-tumor efficacy: showed anti-tumor efficacy
Human NSCLC PDX LXFL-529; mouse, in vivo, iv, 3.2 mg/kg
  tolerability / bodyweight: slight and transient bodyweight loss
[2]; A431-K5 cells (MSLN MFI 1430.3)
  IC50: 1.5 nM
[2]; COV362, COV362 cells (MSLN MFI 113.5)
  IC50: 2.78 nM
[2]; HAC-2 cells (MSLN MFI 172.3)
  IC50: 26.6 nM
[2]; HEC-251, HEC-251 cells (MSLN MFI 53.3)
  IC50: 0.5 nM
[2]; HK-1, HK1 cells (MSLN MFI 39.2)
  IC50: 0.89 nM
[2]; HNE1, HNE-1 cells (MSLN MFI 110.8)
  IC50: 0.87 nM
[2]; HNE-1-T1 cells (MSLN MFI 79.3)
  IC50: 1.03 nM
[2]; Homo sapiens, A549, A549 cells (MSLN MFI 14.2)
  IC50: 2.72 nM
[2]; Homo sapiens, A-431, A431 cells (MSLN MFI 5.6)
  IC50: 0.55 nM
[2]; Homo sapiens, ASPC1, AsPC1 cells (MSLN MFI 33.47)
  IC50: 1.62 nM
[2]; Homo sapiens, BXPC-3, BxPC3 cells (MSLN MFI 15.59)
  IC50: 0.66 nM
[2]; Homo sapiens, CNE-2, CNE2 cells (MSLN MFI 147.7)
  IC50: 0.49 nM
[2]; Homo sapiens, Caov-3, CaOV-3 cells (MSLN MFI 137.6)
  IC50: 0.44 nM
[2]; Homo sapiens, Capan-2, Capan-2 cells (MSLN MFI 36)
  IC50: 1.21 nM
[2]; Homo sapiens, EGI-1, EGI-1 cells (MSLN MFI 14.8)
  IC50: 1.48 nM
[2]; Homo sapiens, HCC1806, HCC1806 cells (MSLN MFI 189.3)
  IC50: 0.37 nM
[2]; Homo sapiens, HEC-1-A, HEC-1-A cells (MSLN MFI 16.5)
  IC50: 0.68 nM
[2]; Homo sapiens, HEC-1B, HEC-1-B cells (MSLN MFI 16.9)
  IC50: 0.54 nM
[2]; Homo sapiens, HONE1, HONE1 cells (MSLN MFI 108.6)
  IC50: 0.89 nM
[2]; Homo sapiens, JIMT-1, JIMT-1 cells (MSLN MFI 36.4)
  IC50: 0.39 nM
[2]; Homo sapiens, Lu-65, Lu65 cells (MSLN MFI 13.13)
  IC50: 0.56 nM
[2]; Homo sapiens, MFE-280, MFE-280 cells (MSLN MFI 45.1)
  IC50: 3.24 nM
[2]; Homo sapiens, MKN-1, MKN1 cells (MSLN MFI 22.06)
  IC50: 0.96 nM
[2]; Homo sapiens, MKN-7, MKN7 cells (MSLN MFI 18.48)
  IC50: 0.58 nM
[2]; Homo sapiens, MKN-45, MKN45 cells (MSLN MFI 57.94)
  IC50: 3.65 nM
[2]; Homo sapiens, MKN-74, MKN74 cells (MSLN MFI 7.73)
  IC50: 0.78 nM
[2]; Homo sapiens, NCI-H23, NCI-H23 cells (MSLN MFI 4.42)
  IC50: 0.6 nM
[2]; Homo sapiens, NCI-H226, H226 cells (MSLN MFI 725.3)
  IC50: 0.66 nM
[2]; Homo sapiens, NCI-H292, NCI-H292 cells (MSLN MFI 108.6)
  IC50: 0.58 nM
[2]; Homo sapiens, NCI-H460, NCI-H460 cells (MSLN MFI 8.56)
  IC50: 35.3 nM
[2]; Homo sapiens, NCI-H1355, NCI-H1355 cells (MSLN MFI 11.5)
  IC50: 0.67 nM
[2]; Homo sapiens, NCI-H1650, NCI-H1650/MSLN cells (MSLN MFI 1865.5)
  IC50: 0.84 nM
[2]; Homo sapiens, NCI-H1650, NCI-H1650 cells (MSLN MFI 31.5)
  IC50: 0.61 nM
[2]; Homo sapiens, NCI-H2126, NCI-H2126 cells (MSLN MFI 73.6)
  IC50: 0.53 nM
[2]; Homo sapiens, NCI-N87, NCI-N87 cells (MSLN MFI 125.8)
  IC50: 0.11 nM
[2]; Homo sapiens, OVCAR-3, OVCAR3 A1 cells (MSLN MFI 220)
  IC50: 0.15 nM
[2]; Homo sapiens, PC-9, PC9 cells (MSLN MFI 11.24)
  IC50: 0.56 nM
[2]; Homo sapiens, SUNE1, SUNE1 cells (MSLN MFI 212.4)
  IC50: 0.56 nM
[2]; Homo sapiens, T47D, T-47D cells (MSLN MFI 4.4)
  IC50: 0.68 nM
[2]; Kuramochi cells (MSLN MFI 211.2)
  IC50: 0.89 nM
[2]; MOR/CPR cells (MSLN MFI 120.79)
  IC50: 3.69 nM
[2]; NCI-H322, NCI-H322 cells (MSLN MFI 83.9)
  IC50: 0.46 nM
[2]; NCI-H1355-Sorted cells (MSLN MFI 32.7)
  IC50: 0.7 nM
[2]; NCI-H1568, NCI-H1568/MSLN cells (MSLN MFI 4474)
  IC50: 0.44 nM
[2]; NCI-H2110, NCI-H2110 cells (MSLN MFI 112.2)
  IC50: 0.32 nM
[2]; SNU-216, SNU216 cells (MSLN MFI 94.91)
  IC50: 1.78 nM
[2]; SNU-245 cells (MSLN MFI 23.9)
  IC50: 78.2 nM
[2]; SNU-478 cells (MSLN MFI 53.8)
  IC50: 1.58 nM
[2]; SNU-1196 cells (MSLN MFI 40.2)
  IC50: 1.14 nM
[2]; TFK1 cells (MSLN MFI 132.81)
  IC50: 1.27 nM
MSLN-negative cell lines; A431 cells (MSLN MFI 5.6)
  % Max Killing: 93.04%
MSLN-negative cell lines; BxPC3 cells (MSLN MFI 15.59)
  % Max Killing: 97.28%
MSLN-negative cell lines; A-431, A431 cells (MSLN MFI 5.6)
  IC50: 0.18 nM
MSLN-negative cell lines; BXPC-3, BxPC3 cells (MSLN MFI 15.59)
  IC50: 0.13 nM
MSLN-negative cell lines; SK-OV-3, SKOV3 cells (MSLN MFI 20)
  IC50: 0.14 nM
MSLN-negative cell lines; SKOV3 cells (MSLN MFI 20)
  % Max Killing: 72.82%
